Assay results from the supplement of paper PMC4862054.

Legend:
Settings in all cases: incubation time: 72 h
BT-474 [1] = test: normalised response (% of control), CellTox Green; higher = less cell death (100 = DMSO, 0 = benzethonium chloride kill control)
How it was run: (§1)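 Values are normalised signals, each belonging to one concentration of the series. Breast cancer cells (20 µl suspension) were seeded into 384-well plates with compound at 5 concentrations in 10-fold steps over a compound-specific 10,000-fold range and incubated 72 h. Readouts were CellTox Green fluorescence (485/520 nm), then CellTiter-Glo luminescence after 10 min at room temperature, with each plate set to 0.1 % DMSO as 100 and a positive kill control as 0.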

BT-549 [2] = test: as above
How it was run: as §1

CAL-120 [3] = test: as above
How it was run: as §1

CAL-148 [4] = test: as above
How it was run: as §1

CAL-51 [5] = test: as above
How it was run: as §1

CAL-85-1 [6] = test: as above
How it was run: as §1

DU-4475 [7] = test: as above
How it was run: as §1

HCC1143 [8] = test: as above
How it was run: as §1

HCC1599 [9] = test: as above
How it was run: as §1

HCC1937 [10] = test: as above
How it was run: as §1

HDQ-P1 [11] = test: as above
How it was run: as §1

Hs578T [12] = test: as above
How it was run: as §1

MCF-10A [13] = test: as above
How it was run: as §1

MDA-MB-231 [14] = test: as above
How it was run: as §1

MDA-MB-436 [15] = test: as above
How it was run: as §1

MDA-MB-453 [16] = test: as above
How it was run: as §1

MDA-MB-468 [17] = test: as above
How it was run: as §1

MFM-223 [18] = test: as above
How it was run: as §1

BT-474 [19] = test: normalised response (% of control), CellTiter-Glo; higher = more viable cells (100 = DMSO, 0 = benzethonium chloride kill control)
How it was run: as §1

BT-549 [20] = test: as above
How it was run: as §1

CAL-120 [21] = test: as above
How it was run: as §1

CAL-148 [22] = test: as above
How it was run: as §1

CAL-51 [23] = test: as above
How it was run: as §1

CAL-85-1 [24] = test: as above
How it was run: as §1

DU-4475 [25] = test: as above
How it was run: as §1

HCC1143 [26] = test: as above
How it was run: as §1

HCC1599 [27] = test: as above
How it was run: as §1

HCC1937 [28] = test: as above
How it was run: as §1

HDQ-P1 [29] = test: as above
How it was run: as §1

Hs578T [30] = test: as above
How it was run: as §1

MCF-10A [31] = test: as above
How it was run: as §1

MDA-MB-231 [32] = test: as above
How it was run: as §1

MDA-MB-436 [33] = test: as above
How it was run: as §1

MDA-MB-453 [34] = test: as above
How it was run: as §1

MDA-MB-468 [35] = test: as above
How it was run: as §1

MFM-223 [36] = test: as above
How it was run: as §1

SK-BR-3 = test: as above
How it was run: as §1

Structure (SMILES)	normalised response (BT-474 [1]) [%]	normalised response (BT-549 [2]) [%]	normalised response (CAL-120 [3]) [%]	normalised response (CAL-148 [4]) [%]	normalised response (CAL-51 [5]) [%]	normalised response (CAL-85-1 [6]) [%]	normalised response (DU-4475 [7]) [%]	normalised response (HCC1143 [8]) [%]	normalised response (HCC1599 [9]) [%]	normalised response (HCC1937 [10]) [%]	normalised response (HDQ-P1 [11]) [%]	normalised response (Hs578T [12]) [%]	normalised response (MCF-10A [13]) [%]	normalised response (MDA-MB-231 [14]) [%]	normalised response (MDA-MB-436 [15]) [%]	normalised response (MDA-MB-453 [16]) [%]	normalised response (MDA-MB-468 [17]) [%]	normalised response (MFM-223 [18]) [%]	normalised response (BT-474 [19]) [%]	normalised response (BT-549 [20]) [%]	normalised response (CAL-120 [21]) [%]	normalised response (CAL-148 [22]) [%]	normalised response (CAL-51 [23]) [%]	normalised response (CAL-85-1 [24]) [%]	normalised response (DU-4475 [25]) [%]	normalised response (HCC1143 [26]) [%]	normalised response (HCC1599 [27]) [%]	normalised response (HCC1937 [28]) [%]	normalised response (HDQ-P1 [29]) [%]	normalised response (Hs578T [30]) [%]	normalised response (MCF-10A [31]) [%]	normalised response (MDA-MB-231 [32]) [%]	normalised response (MDA-MB-436 [33]) [%]	normalised response (MDA-MB-453 [34]) [%]	normalised response (MDA-MB-468 [35]) [%]	normalised response (MFM-223 [36]) [%]	normalised response (SK-BR-3) [%]
CN(Cc1cnc2nc(N)nc(N)c2n1)c1ccc(C(=O)N[C@@H](CCC(=O)O)C(=O)O)cc1 [Methotrexate] (5000 nM)	102	125	98.9	100	115	102	102	109	98.8	110	107	102	107	116	97.6	107	129	97.5	78.1	97.8	21.1	100	56.8	51.4	102	83.5	97.9	31.3	51.3	110	107	77.5	81.5	110	99.4	104	115
O=[N+]([O-])c1ccc2c(c1)S(=O)(=O)C=C2 [Stattic] (5000 nM)	12.7	-67.2	105	51.2	-12.3	-36.1	104	118	95.2	28.6	106	-141		51.2	106	108	-175	4.35	68.9	0.47	88.3	46.4	0.16	1.59	101	93.1	86.9	22.3	92.2	29.6	105	30.9	75.7	45	2.23	22.8	80.9
O=C(O)CNC(=O)c1c(O)c2ccccc2n(Cc2ccccc2)c1=O [IOX-2] (5000 nM)	100	72.8	98.4	98.5	94.9	104	103	97.1	98.2	114	105	58.2	84.6	66.4	93.2	110	57.3		95.7	96.2	101	100	85.1	96.9	99.3	103	114	93.3	100	100	104	91.3	96.7	93.1	106	97.7	99.7
C=CCN(/C=C1/C(=O)O[C@H](COC)[C@@]2(C)C1=C(O)C(=O)C1=C2[C@H](OC(C)=O)C[C@]2(C)C(=O)CC[C@@H]12)CC=C [Sonolisib] (1000 nM)	95.1	112	102	109	104	97	104	82.6	115		98.1	89.7	66.6	111	103	109	112	104	106	97.4	102	109	77.5	105	99	102	110	99.8	101	99.2	97.6	103	112	105	102	107	105
CN(C)C(=N)NC(=N)N [Metformin] (10000 nM)	95	76.2	88.3	97.9	66.7	98	89.4	72.2	82.2	66.8	101	83.7	103	90.4	55.5	80.9	79.5	99.2	91	98.4	106	98.3	75.2	102	79.5	93.6	108	99.5	97.2	98.9	87.7	93.5	101	80.3	92.7	92.4	77.8
CC(C)n1cnc2c(NCCc3ccc(O)cc3)nc(-c3csc4ccccc34)nc21 [StemRegenin 1] (1000 nM)	100	-112	104	85.1	118	118	107	119	96	89.9	102	88.4	83.1	114	110	110	137	81.1	108	77.9	99.9	99.3	121	98.8	103	110	111	95.4	89.6	105	94	110	100	102	100	93.8	96.5
CCn1c(C(=O)N(C2CC2)C2CC2)cc2c3c(ncn3C)c(Nc3cc(C)n(C)n3)nc21 (1000 nM)	98.8	94.2	96.2	87.1	98.2	102	103	106	89.3	120	96.2	93	117	102	98.2	104	95.6	98.5	92.7	98.2	96.4	96.6	70.1	99.5	97.2	103	124	101	98.8	95.8	99.9	92.5	105	92.7	85.4	95.2	101
CCN(CC)CCCC(C)Nc1ccnc2cc(Cl)ccc12 (stereo not drawn) [Chloroquine] (10000 nM)	35.4	93.2	-30.1	35.5	91.5	93	96.2	110	86.2	91.5	81.6	94.3	95.2	50.4	59.4	62.1	119	67.7	72.1	73.3	50.6	60.2	51.7	57.7	80.1	89.6	65.3	65.7	86.2	97.4	74.2	73.9	77.3	28.8	57.4	62.9	35.2
